Reference: article PMC10937738, “Evaluation of the photoprotective and antioxidant potential of an avobenzone derivative” (Frontiers in Physiology, 2024)
Several values for one entry are separate records, joined by “and”; a condition that tells them apart may be missing. Equal entries are not always repeated. Entries after “also recorded” stand apart in the source; their conditions may differ.

How the values were obtained:
[1] = Photoreactivity ROS assay (OECD TG 495): singlet oxygen (SO) and superoxide anion (SA) generation
Description: The photoreactivity assay was conducted to detect the generation of oxygen singlet (^1O2; SO) and superoxide anion (O2 ^−•; SA), according to OECD TG n° 495, as described in [Freitas et al. (2015)]. […] SO generation was detected by spectrophotometric measurement of p-nitrosodimethylaniline (RNO) bleaching, followed by decreased absorbance of RNO at 440 nm and SA generation was detected by observing the reduction of nitroblue tetrazolium (NBT) at 560 nm. The assay was performed in triplicate in three independent experiments.
According to the ROS Assay protocol ([OECD, 2019b]), the compound’s photoreactivity is classified according to Table 2.

3T3 BALB/c fibroblasts = assay: 3T3 Neutral red uptake phototoxicity test (3T3 NRU PT, OECD TG 432); format: cell-based; settings: UVA 9 J/cm^2
Description: The 3t3 Neutral red uptake phototoxicity (3t3 NRU PT) test was performed in accordance to OECD TG n° 432 ([OECD, 2019a]) using 3T3 BALB/c fibroblasts cells from the Cell Bank of Rio de Janeiro (Rio de Janeiro, Brazil). Fibroblasts were cultured in DMEM supplemented with calf serum (10% v/v), L-glutamine (4 mM) and antibiotic mixture (penicillin, streptomycin and amphotericin B) and incubated at 37°C with 5% CO2. […] The initial concentration for the proportion 5:7:5 was 100 μg/mL for octyl methoxycinnamate, 71.4 μg/mL for avobenzone, and 71.4 μg/mL for avobenzone derivative. These preparations were also diluted in PBS (pH 7.2) to generate samples with 8 different concentrations in a geometric progression (constant factor = 1.47). The highest final concentration of DMSO was 1%. Fibroblasts were seeded at a density of 10^4 cell/well and after 24 h of incubation (5% CO2; 37°C), they were treated with 8 different concentrations of the combinations in the wells in sextuplicate, incubated for 1 h (5% CO2; 37°C) and irradiated with UVA radiation of 9 J/cm^2. […]
Cell viability was measured using the NRU assay with the uptake of the vital dye neutral red into cellular lysosomes. […] After measuring the absorbance of both plates at 540 nm using a microplate reader (SynergyTM 2, Biotek), all data were analyzed by Phototox Software 2.0 (ZEBET, Germany), and the mean photo effect (MPE) was calculated. […]

HaCaT keratinocytes [2] = assay: Protection against intracellular UVA-induced ROS production (DCFH2-DA probe), HaCaT monolayer; format: cell-based; settings: UVA 4 J/cm^2
Description: To evaluate intracellular ROS production, such as hydroxyl radical, hydrogen peroxide, nitrite and carbonate anion, the probe 2,7-dichlorodihydrofluorescein-diacetate (DCFH2-DA) was used. This probe can undergo hydrolysis by cellular esterases forming the compound DCFH, that can be converted by ROS into the fluorescent compound […] (DCF), measured at the end of the assay ([Kalyanaraman et al., 2012]; [Alam et al., 2013]). The assay was performed under the same conditions (cell type, density and exposure times) as the evaluation of cell viability in immortalized HaCaT keratinocytes.
In detail, 1 × 10^5 cells/well of HaCaT keratinocytes were seeded in 96-well plates and incubated for 24 h at 37°C in a 5% CO2 atmosphere. Then, cells were treated with the avobenzone derivative (31,25–1,000 μg/mL; constant factor: 2) for 1 h and the probe DCFH2-DA (10 µM) for 30 min, followed by 4 J/cm^2 of UVA radiation (Solar simulator Dr. Hönle type SOL-500, Planegg, Germany). This UV waveband was chosen because UVA and visible light are the most relevant radiations for ERO production ([Zastrow et al., 2009]; [Vandersee et al., 2015]). Quercetin (10 μg/mL) and norfloxacin (100 μg/mL) were used as antioxidant and pro-oxidant controls, respectively. The plates were measured using a microplate reader (Synergy™ HT, BioTek, United States) at 485 nm excitation and 528 nm emission. Results are expressed as a percentage of fluorescence in relation to the irradiated control, considered 100%.

HaCaT keratinocytes [3] = assay: Cell viability of HaCaT keratinocytes (NRU assay); format: cell-based; settings: SDS 100 μg/mL; for Cytotoxicity for HaCaT cells: avobenzone derivative 31.25–1,000 μg/mL, vs untreated control, 70% threshold ISO 10993-5
Description: Prior to the beginning of the assay, cell viability was evaluated to exclude the possibility that the decrease in fluorescence intensity was related to cell death and not to antioxidant activity. HaCaT keratinocytes were cultured in DMEM supplemented with fetal bovine serum (10%), pyruvate (1 mM), penicillin (100 IU/mL) and streptomycin (100 μg/mL), seeded in 96-well plates (1 × 10^5 cells/well) and, 24 h later, treated with avobenzone derivative (31,25–1000 μg/mL; constant factor: 2). Cell viability was determined using the NRU assay ([Gaspar et al., 2013]; [Rangel et al., 2020]) and sodium dodecyl sulfate (SDS) was used as a positive control (100 μg/mL). Untreated cells absorbance at 540 nm were considered 100% of cell viability to calculate the percentage relative to each sample tested.

[4] = Photostability by UV spectrophotometry, solutions in isopropanol; format: physicochemical
Description: To assess the photoprotective potential of the new UV filter’s derivative, as well as its combination with avobenzone and octyl methoxycinnamate (Cb), a photostability assay was conducted irradiating all samples at a dose of 27,6 J/cm^2 emitted by a UVA lamp (Philips UVA Actinic BL/10, Netherlands) ([ICH, 1996]; [1998]), while the negative controls were kept in a dark place. The derivative was tested at 100 μg/mL in isopropanol and the combinations Cb (avobenzone, octyl methoxycinnamate and avobenzone derivative) and Cc (avobenzone, octyl methoxycinnamate and ethylhexyl methoxycrylene were tested with a proportion of 4:8:5 (w/w), where the initial concentrations were 100 μg/mL for octyl methoxycinnamate, 50 μg/mL for avobenzone and 62.5 μg/mL for avobenzone derivative/ethylhexyl methoxycrylene. Solutions were analyzed by spectrophotometry in the 280–400 nm range. The results are expressed as a percentage of the area of irradiated samples related to the area of non-irradiated samples according to [Gaspar and Maia Campos (2006)] and [Tavares et al. (2020)].

[5] = DPPH free radical scavenging; settings: 30 min in the dark, absorbance 517 nm
Description: The DPPH free radical scavenging method was conducted according to [Martins et al. (2016)], with modifications. This assay is based on the reduction of the 2,2-diphenyl-1-picrylhydrazyl radical by the antioxidant agent, acting as a hydrogen donor. DPPH is a stable radical due to its molecular conformation, capable of reacting with hydrogen/electron donors, generating its reduced form, accompanied by a reduction in its absorbance (517 nm) ([Kedare and Singh, 2011]). The antioxidant activity is then determined by monitoring the change in the color of the reaction medium, changing from violet to yellow ([Pisoschi and NEgulescu, 2012]).
In a 96-well plate, 100 µL of each sample were diluted in methanol. The concentrations used for avobenzone derivative under study were […] (constant factor: 2) and quercetin was used as a positive control for the test (14–0.109 μg/mL, constant factor: 2). The plate was covered and kept in a dark place for 30 min at room temperature. The absorbance reading was performed at 517 nm using a microplate reader (Synergy™ 2#, Biotek, United States), and the results obtained were used to calculate the inhibition percentages. […] The half maximum inhibitory concentration (IC50-DPPH) was calculated using the linear equation by replacing the value of y with 50 ([Chen et al., 2013]).

[6] = system: reconstructed human skin (RHS); assay: UVA-induced intracellular ROS production (DCFH2-DA probe) in reconstructed human skin model; format: cell-based; settings: 200 μg/mL, 25 µL topical 1 h; UVA 10 J/cm^2
Description: In-house RHS models were prepared on 24-well cell culture inserts, with primary human fibroblasts and keratinocytes from foreskin (pooled from three donors) after approval by the Ethics Committee in Research Involving Human Beings—School of Pharmaceutical Sciences of Ribeirão Preto—USP (CAAE n° 35685220.3.0000.5403; Protocol CEP/FCFRP n° 551).
Primarily, the dermal compartment consisted of collagen type I (Corning®) and 1.14 × 10^5 normal human fibroblasts that were seeded into the insert (0.4 µm pore size; ThinCert™, Greiner Bio-One GmbH, Frickenhausen—Germany) and incubated overnight. After 20 h, 3.7 × 10^5 normal human keratinocytes were seeded on the top of the dermis mixture and kept submerged in an in-house prepared culture medium for 24 h, so the cells could form a monolayer. […]
Immediately after irradiation and washing with PBS, the tissues were frozen in liquid nitrogen and 8 µm histological sections were obtained in a cryostat. Pictures were taken in an inverted Ti-S microscope (Nikon Instruments Inc., Holland), 488 nm, using 100 ms of exposure intensity and analyzed by ImageJ software ([Rasmussen et al., 2010]; [Marionnet et al., 2014]). Results of fluorescence intensity were normalized to area/pixels and expressed as percent fluorescence compared to untreated irradiated (NT + UV) control, considered 100%.

[7] = parameters: method as in Santana Reis et al., 2014; settings: method not stated; ref Santana Reis et al., 2014; cited from earlier work
[8] = solutions in isopropanol, UVA dose 27,6 J/cm^2, area under curve of irradiated vs non-irradiated (100%)

With `CC(C(=O)O)c1cccc(C(=O)c2ccccc2)c1` (stereo not drawn) [Ketoprofen, ketoprofen] the “SA (superoxide anion generation, NBT reduction at 560 nm)” value ([1]; avobenzone derivative 1.0 mM, mean ± SEM, n = 3) was 116 ± 20.6.

With `N[C@@H](Cc1c[nH]cn1)C(=O)O` [L-histidine] the “Classification (photoreactivity)” value [1] was “Non-photoreactive”.

In the case of `CCn1cc(C(=O)O)c(=O)c2cc(F)c(N3CCNCC3)cc21` [Norfloxacin, reference compound], the “MPE (mean photo effect)” value (3T3 BALB/c fibroblasts; Phototox Software 2.0, one value per independent experiment (two)) is reported as 0.568 and 0.520 and the “Increase of ROS production compared to NT + UV” value (HaCaT keratinocytes [2]; 100 μg/mL) is reported as “approx. 46%”.

With `CCCCCCCCCCCCOS(=O)(=O)[O-].[Na+]` [SDS, sodium dodecyl sulfate] the Cell viability (HaCaT keratinocytes [3]; untreated cells = 100%) was under 70% and the “Cytotoxicity for HaCaT cells” value (HaCaT keratinocytes [3]) was “cytotoxic”.

With `O=C(N/N=C/c1ccc(O)cc1)c1ccc(O)cc1` [avobenzone derivative, (E)-4-hidroxi-N’-(4-hydroxybenzylidene)benzohydrazide] the “Remaining absorption values after irradiation (%) UVA” value [4, 8] was 97.7 ± 2.5%, the “Remaining absorption values after irradiation (%) UVB” value [4, 8] was 97.8 ± 2.1% and the Stability classification ([4]; solutions, irradiated vs non-irradiated pair (p < 0.05 = photounstable)) was “Photostable”. The “Classification (photoreactivity)” value [1] was “Non-photoreactive”, the “Prediction model (phototoxicity)” value (3T3 BALB/c fibroblasts; OECD TG 432) was “non phototoxic; also recorded: Non-Phototoxic” and the “IC50 (DPPH)” value [5] was 18.2 ± 10.2 mg/L. For the same compound, the “Cytotoxicity for HaCaT cells” value (HaCaT keratinocytes [3]) was “not cytotoxic”, the “Reduction in ROS generation compared to NT + UV” value (“Reduction in ROS generation” below) (HaCaT keratinocytes [2]; 125 μg/mL) was 37% and the “Reduction in ROS generation” value (HaCaT keratinocytes [2]; 250 μg/mL) was 31%. The “Reduction in ROS generation” value (HaCaT keratinocytes [2]; 500 μg/mL) was 58%, the “ROS values higher than NT + UV (possible pro-oxidant effect)” value (HaCaT keratinocytes [2]; 1,000 μg/mL) was 5% and the “Reduction in ROS generation” value [6] was 30.7%. The LogP [7] was 1.32 ± 0.52.

For `O=c1c(O)c(-c2ccc(O)c(O)c2)oc2cc(O)cc(O)c12` [quercetin, reference compound], the “IC50 (DPPH)” value [5] was 2.85 ± 1.03 mg/L and the “Decrease of ROS production compared to NT + UV” value (HaCaT keratinocytes [2]; 10 μg/mL) was “approx. 67%”.
